Reference: patent publication US6461997B1, “Triazole sulfones having herbicidal activity” (Monsanto Technology LLC, priority 1999, dated 2002)

Experiments:
SASKR (russian thistle) = assay: Pre-emergence herbicidal activity, cool season; type: in vivo, Salsola kali; details: lowest tested rate with 80% or greater inhibition; rates 300, 100, 30, 10 g/ha; about 14 days
Protocol: (§1) Tables 5 to 8 summarize results of tests conducted as described below to determine the pre-emergence herbicidal activity, in the form of a GR80 value, of illustrative compounds of this invention. […] Compounds of the invention were typically applied at rates of 300, 100, 30, and 10 g/ha. Where herbicidal activity was evident but 80% inhibition was not achieved at the highest rate tested, an asterisk (*) is shown in the following tables.
(§2) The pre-emergence tests were conducted by the following procedure. Topsoil was sieved to pass through a 1.27 cm screen. Fertilizer was added to the topsoil and the mixture was then sterilized by heating. The topsoil mixture was placed in a pot and compacted to a depth of 1.0 to 1.25 cm from the top of the pot. Seeds of each of several monocotyledonous and dicotyledonous annual plant species were placed on top of the soil. Additional soil was subsequently placed over the seeds to level-fill the pot. A known amount of each test compound dissolved or suspended in an appropriate organic solvent was diluted with a 50:50 mix of acetone and water and applied to the surface of the soil. After treatment the plants were placed in a greenhouse where they received 0.64 cm of overhead irrigation. All subsequent watering consisted of a light overhead mist and/or subirrigation as needed for germination and growth. Tables 5 and 6 below relate to warm season plant species which were placed after pre-emergence treatment in a greenhouse with a 30/21° C. day/night temperature regime. Tables 7 and 8 below relates to cool season plant species placed after pre-emergence treatment in a greenhouse or growth chamber with an 18/13° C. day/night temperature regime.
(§3) Approximately 14 days after planting and treating, the plants were observed and herbicidal efficacy recorded as percent inhibition by comparison with untreated plants.
(§4) The plant species usually regarded as weeds which were utilized in the tests are identified in the tables below according to the following legend, in which “d” indicates a dicotyledonous species and “m” a monocotyledonous species. All monocotyledonous species included in the tests herein are grasses.

[1] = system: VERPE (creeping speedwell); assay: Pre-emergence herbicidal activity, cool season; type: in vivo, Veronica persicaria; details: lowest tested rate with 80% or greater inhibition; rates 300, 100, 30, 10 g/ha; about 14 days
Protocol: as §1, §2, §3, §4

SINAR (wild mustard) = assay: Pre-emergence herbicidal activity, cool season; type: in vivo, Sinapis arvensis; details: lowest tested rate with 80% or greater inhibition; rates 300, 100, 30, 10 g/ha; about 14 days
Protocol: as §1, §2, §3, §4

POLCO (wild buckwheat) = assay: Pre-emergence herbicidal activity, cool season; type: in vivo, Polygonum convolvulus; details: lowest tested rate with 80% or greater inhibition; rates 300, 100, 30, 10 g/ha; about 14 days
Protocol: as §1, §2, §3, §4

[2] = system: LAMPU (purple deadnettle); assay: Pre-emergence herbicidal activity, cool season; type: in vivo, Lamium purpureum; details: lowest tested rate with 80% or greater inhibition; rates 300, 100, 30, 10 g/ha; about 14 days
Protocol: as §1, §2, §3, §4

STEME (common chickweed) = assay: Pre-emergence herbicidal activity, cool season; type: in vivo, Stellaria media; details: lowest tested rate with 80% or greater inhibition; rates 300, 100, 30, 10 g/ha; about 14 days
Protocol: as §1, §2, §3, §4

[3] = system: GALAP (catchweed bedstraw); assay: Pre-emergence herbicidal activity, cool season; type: in vivo, Galium aparine; details: lowest tested rate with 80% or greater inhibition; rates 300, 100, 30, 10 g/ha; about 14 days
Protocol: as §1, §2, §3, §4

[4] = system: PANMI (wild proso millet); assay: Pre-emergence herbicidal activity, warm season; type: in vivo, Panicum miliaceum; details: GR80 = lowest tested rate (300, 100, 30, 10 g/ha) with 80% or greater inhibition; approx. 14 days after treating; 30/21° C.
Protocol: as §1, §2, §3, §4

[5] = system: AGSST (creeping bentgrass); assay: Pre-emergence herbicidal activity, cool season; type: in vivo, Agrostis stolonifera; details: GR80 = lowest tested rate (300, 100, 30, 10 g/ha) with 80% or greater inhibition; approx. 14 days after treating; 18/13° C.
Protocol: as §1, §2, §3, §4

SETVI (green foxtail) = assay: Pre-emergence herbicidal activity, cool season; type: in vivo, Setaria viridis; details: GR80 = lowest tested rate (300, 100, 30, 10 g/ha) with 80% or greater inhibition; approx. 14 days after treating; 18/13° C.
Protocol: as §1, §2, §3, §4

ECHCG (barnyardgrass) = assay: Pre-emergence herbicidal activity, warm season; type: in vivo, Echinochloa crus-galli; details: GR80 = lowest tested rate (300, 100, 30, 10 g/ha) with 80% or greater inhibition; approx. 14 days after treating; 30/21° C.
Protocol: as §1, §2, §3, §4

| Compound | Pre-emergence activity GR80, SASKR (SASKR (russian thistle)) | Pre-emergence activity GR80, VERPE [1] | Pre-emergence activity GR80, SINAR (SINAR (wild mustard)) | Pre-emergence activity GR80, POLCO (POLCO (wild buckwheat)) | Pre-emergence activity GR80, LAMPU [2] | Pre-emergence activity GR80, STEME (STEME (common chickweed)) | Pre-emergence activity GR80, GALAP [3] | Pre-emergence activity (GR80) PANMI [4] [g/ha] | Pre-emergence activity (GR80) AGSST [5] [g/ha] | Pre-emergence activity (GR80) SETVI (SETVI (green foxtail)) [g/ha] | Pre-emergence activity (GR80) ECHCG (ECHCG (barnyardgrass)) [g/ha] |
| --- | --- | --- | --- | --- | --- | --- | --- | --- | --- | --- | --- |
| C#CCN(C)C(=O)n1cnc(S(=O)(=O)C(F)(F)Cl)n1 [Example 90] | 30 g/ha | 10 g/ha | 300 g/ha | [empty] | [empty] | [empty] | [empty] | – | – | – | – |
| CN(C(=O)n1cnc(S(=O)(=O)C(F)(F)Cl)n1)c1ccccc1 [Example 86] | 300 g/ha | 100 g/ha | 300 g/ha | [empty] | 100 g/ha | [empty] | 300 g/ha | – | – | – | – |
| O=C(N1CCOCC1)n1cnc(S(=O)(=O)C(F)F)n1 [Example 25] | [empty] | [empty] | [empty] | [empty] | 300 g/ha | [empty] | 300 g/ha | – | – | – | – |
| O=C(N1CCOCC1)n1cnc(S(=O)(=O)C(F)(F)C(F)F)n1 [Example 60] | [empty] | [empty] | [empty] | [empty] | [empty] | [empty] | [empty] | – | – | – | – |
| C#CCN(C)C(=O)n1cnc(S(=O)(=O)C(F)(F)Br)n1 [Example 42] | [empty] | [empty] | [empty] | [empty] | [empty] | [empty] | 300 g/ha | 300 | 100 | – | – |
| C=CCN(C)C(=O)n1cnc(S(=O)(=O)C(F)(F)SCC)n1 [Example 53] | [empty] | [empty] | [empty] | [empty] | [empty] | [empty] | 300 g/ha | 300 | 300 | 300 | – |
| CCN(CC)C(=S)n1cnc(S(=O)(=O)C(F)F)n1 [Example 35] | [empty] | 100 g/ha | 100 g/ha | 100 g/ha | 300 g/ha | [empty] | 100 g/ha | – | – | – | – |
| C#CCN(C)C(=O)n1cnc(S(=O)(=O)C(F)(F)SCC)n1 [Example 54] | [empty] | 300 g/ha | [empty] | 100 g/ha | [empty] | [empty] | [empty] | 300 | – | – | – |
| CN(C(=O)n1cnc(S(=O)(=O)C(F)(F)Br)n1)c1ccccc1 [Example 38] | [empty] | [empty] | [empty] | [empty] | [empty] | [empty] | [empty] | – | – | – | – |
| C=CCN(C)C(=O)n1cnc(S(=O)(=O)C(F)(F)C(F)(F)Br)n1 [Example 77] | [empty] | [empty] | [empty] | [empty] | [empty] | [empty] | [empty] | – | 300 | – | – |
| CN(Cc1ccccc1)C(=O)n1cnc(S(=O)(=O)C(F)(F)C(F)(F)Br)n1 [Example 80] | [empty] | [empty] | [empty] | [empty] | [empty] | [empty] | [empty] | 300 | – | 300 | – |
| CN(C(=O)n1cnc(S(=O)(=O)C(F)(F)C(F)(F)Br)n1)c1ccccc1 [Example 74] | 300 g/ha | 300 g/ha | 300 g/ha | [empty] | 300 g/ha | [empty] | [empty] | 300 | – | – | – |
| CCSC(F)(F)S(=O)(=O)c1ncn(C(=O)N(C)c2ccccc2)n1 [Example 50] | [empty] | [empty] | [empty] | [empty] | [empty] | 300 g/ha | 100 g/ha | 300 | 30 | – | – |
| CN(C(=O)n1cnc(S(=O)(=O)C(F)(F)C(F)(F)Br)n1)C1CCCCC1 [Example 79] | [empty] | 30 g/ha | 300 g/ha | 300 g/ha | 100 g/ha | 100 g/ha | 300 g/ha | 300 | 100 | 300 | 300 |
| CN(C(=O)n1cnc(S(=O)(=O)C(F)(F)C(F)F)n1)c1ccccc1 [Example 62] | [empty] | [empty] | [empty] | [empty] | 300 g/ha | [empty] | [empty] | – | – | – | – |
| COCCN(C)C(=O)n1cnc(S(=O)(=O)C(F)F)n1 [Example 29] | 300 g/ha | 100 g/ha | 300 g/ha | [empty] | 300 g/ha | 300 g/ha | [empty] | – | 300 | – | – |
| O=C(N1CCOCC1)n1cnc(S(=O)(=O)C(F)(F)C(F)(F)Br)n1 [Example 72] | [empty] | [empty] | [empty] | 300 g/ha | [empty] | [empty] | [empty] | – | – | – | – |
